Measured values taken from US7763662B2, “Use of C2-substituted indan-1-ol systems for preparing medicaments for the prophylaxis or treatment of obesity” (Sanofi-Aventis Deutschland GmbH, priority 2001, dated 2010).

Assays:
female NMRI mice = assay: Anorectic action: cumulative evaporated milk consumption after 24 h feed removal; format: in vivo; settings: ip or po (route not specified), N=5; for Reduction in cumulative milk consumption as % of the control: compared with vehicle-treated control animals; for cumulative milk consumption by treated animals: milk offered 30 min after administration, monitored for 7 hours
Protocol: The activity of the compounds was assayed as follows:
The anorectic action was tested on female NMRI mice. After removal of feed for 24 hours, the preparation to be tested was administered intraperitoneally (ip) or by gavage (po). The animals were housed singly and, with free access to drinking water, they were offered evaporated milk 30 minutes after administration of the preparation. The consumption of evaporated milk was determined and the general behavior of the animals was monitored every half an hour for 7 hours. The measured milk consumption was compared to that of vehicle-treated control animals.

Structure (SMILES) | melting point [°C] | Reduction in cumulative milk consumption as % of the control (female NMRI mice; dose 20 mg/kg) | cumulative milk consumption by treated animals (female NMRI mice; dose 20 mg/kg) | Reduction in cumulative milk consumption as % of the control (female NMRI mice; dose 50 mg/kg) | cumulative milk consumption by treated animals (female NMRI mice; dose 50 mg/kg)
CSC1Cc2cc(Cl)ccc2C1O (stereo not shown) (hydrate or solvate) [Example 4, 5-Chloro-2-methylsulfanylindan-1-ol] | 197.1 |  |  |  | 
CS(=O)(=O)C1Cc2cc(Cl)ccc2C1O (stereo not shown) [Example 1, 5-Chloro-2-methylsulfonylindan-1-ol] | 163 | 50 % of the control | 5/1.94 ml |  | 
CCS(=O)(=O)C1Cc2cc(Cl)ccc2C1O (stereo not shown) [Example 3, 5-Chloro-2-ethanesulfonylindan-1-ol] | 145 |  |  |  | 
CSC1Cc2cc(Cl)ccc2C1O (stereo not shown) [Example 4, 5-Chloro-2-methylsulfanylindan-1-ol] |  |  |  | 85 % of the control | 5/0.70 ml
